# Experimental data as given in PubChem BioAssay AID652123 (The Scripps Research Institute Molecular Screening Center, 2013).
# Activity calls are given as the source filed them. How the calls were made is not given here.
# Biological target: Hepatocyte nuclear factor 4-alpha (Homo sapiens) (UniProt P41235)
# Assay: HNF4 dimerization inhibitors, dose response, counter-screen for ABHD5-PLIN5 interaction inhibitor project, biochemical, luminescence, round 2 (AID 652123)
# Settings: HNF4 dimerization biochemical luminescence assay
# Sequence of Hepatocyte nuclear factor 4-alpha (Homo sapiens) (P41235 whole entry, looked up): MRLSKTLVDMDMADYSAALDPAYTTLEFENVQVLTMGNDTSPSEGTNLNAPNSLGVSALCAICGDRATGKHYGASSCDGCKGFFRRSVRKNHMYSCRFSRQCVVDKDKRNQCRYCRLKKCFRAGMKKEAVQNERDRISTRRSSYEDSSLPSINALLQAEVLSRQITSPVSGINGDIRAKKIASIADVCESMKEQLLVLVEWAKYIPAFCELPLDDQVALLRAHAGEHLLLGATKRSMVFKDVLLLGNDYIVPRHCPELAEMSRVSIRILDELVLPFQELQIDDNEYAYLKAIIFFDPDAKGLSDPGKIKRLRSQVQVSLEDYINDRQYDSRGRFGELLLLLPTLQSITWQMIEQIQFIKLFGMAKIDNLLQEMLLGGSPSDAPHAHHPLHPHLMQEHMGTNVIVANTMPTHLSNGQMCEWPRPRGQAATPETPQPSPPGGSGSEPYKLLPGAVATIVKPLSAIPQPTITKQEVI
row,IC50,SMILES
1,> 39.8 µM (inactive),CN(C)CCCN(C(=O)C1CCCCC1)c1nc2cc(Br)ccc2s1
2,3.09 µM,Cc1ccc(CS(=O)(=O)c2ncc(Cl)c(C(=O)Nc3cccc(C(F)(F)F)c3)n2)cc1
3,inactive,O=C(Cc1ccc2c(c1)CCCC2)N1CCN(S(=O)(=O)c2ccc3c(c2)OCCO3)CC1
4,> 39.8 µM (inactive),CN1C(=O)c2ccccc2Sc2ccc(NC(=O)NCCc3cccs3)cc21
5,> 39.8 µM (inactive),CN(C)CCCN(C(=O)C1CCCCC1)c1nc2cc(Cl)ccc2s1
6,3.81 µM,NS(=O)(=O)c1ccc(NC(=O)c2nc(S(=O)(=O)Cc3ccccc3)ncc2Cl)cc1
7,4.99 µM,CCCS(=O)(=O)c1ncc(Cl)c(C(=O)Nc2ccc(C(=O)OC)cc2)n1
8,> 39.8 µM (inactive),Cc1ccc2c(CC(=O)N3CCN(S(=O)(=O)c4ccc5c(c4)OCCCO5)CC3)coc2c1C
9,1.15 µM,CS(=O)(=O)c1ncc(Cl)c(C(=O)Nc2ccc(C(F)(F)F)cc2)n1
10,> 39.8 µM (inactive),CN1C(=O)c2ccccc2Sc2ccc(NC(=O)NCCc3ccccc3)cc21
11,5.66 µM,CCCS(=O)(=O)c1ccc(Cl)c(C(=O)Nc2ccc(C(=O)OCC)cc2)c1
12,> 39.8 µM (inactive),CCCCCNC(=O)Nc1ccc2c(c1)Sc1ccccc1C(=O)N2C
13,> 39.8 µM (inactive),CN(C)CCCN(C(=O)Cc1ccc(F)cc1)c1nc2ccc(Cl)cc2s1
14,> 39.8 µM (inactive),COc1ccc(CC(=O)N2CCCN(S(=O)(=O)c3ccc(C)cc3)CC2)cc1OC
15,2.79 µM,Cc1ccc(CS(=O)(=O)c2ncc(Cl)c(C(=O)Nc3cccc4ccccc34)n2)cc1
16,1.87 µM,Cc1ccc(CS(=O)(=O)c2ncc(Cl)c(C(=O)NCc3ccc4c(c3)OCO4)n2)cc1
17,2.17 µM,Cc1ccc(CS(=O)(=O)c2ncc(Cl)c(C(=O)N3CCN(C)CC3)n2)cc1
18,> 39.8 µM (inactive),CCCCCCNC(=O)Nc1ccc2c(c1)Sc1ccccc1C(=O)N2C
19,> 39.8 µM (inactive),CCCCCCCNC(=O)Nc1ccc2c(c1)Sc1ccccc1C(=O)N2C
20,> 39.8 µM (inactive),CCCC(=O)Nc1ccc2c(c1)C(=O)N(C)c1cc(C)ccc1O2

row,IC50,SMILES
1,1.35 µM,O=C(c1nc(S(=O)(=O)Cc2ccccc2)ncc1Cl)N(Cc1ccccc1)Cc1ccco1
2,2.42 µM,O=C(Nc1ccc2ccccc2c1)c1nc(S(=O)(=O)Cc2ccccc2)ncc1Cl
3,1.94 µM,COc1ccc(CCNC(=O)c2nc(S(=O)(=O)Cc3ccc(F)cc3)ncc2Cl)cc1OC
4,2.44 µM,Cc1ccc(NC(=O)c2nc(S(C)(=O)=O)ncc2Cl)cc1
5,> 39.8 µM (inactive),CN(C)CCCN(C(=O)c1cc2ccccc2oc1=O)c1nc2ccc(Cl)cc2s1
6,> 39.8 µM (inactive),CN1C(=O)c2ccccc2Oc2ccc(NC(=O)c3cccs3)cc21
7,5.08 µM,CCS(=O)(=O)c1ncc(Cl)c(C(=O)Nc2ccc(S(N)(=O)=O)cc2)n1
8,> 39.8 µM (inactive),CCCNC(=O)Nc1ccc2c(c1)N(CC)C(=O)c1ccccc1S2
9,> 39.8 µM (inactive),O=C(Cc1cccc(F)c1)N1CCN(S(=O)(=O)c2ccc3c(c2)OCCO3)CC1
10,> 39.8 µM (inactive),CN(C)CCCN(C(=O)CCc1ccccc1)c1nc2ccc(Cl)cc2s1
11,1.38 µM,CN(C(=O)c1nc(S(C)(=O)=O)ncc1Cl)c1ccccc1
12,> 39.8 µM (inactive),CCCC(=O)N(CCCN1CCOCC1)c1nc2ccc(Cl)cc2s1
13,> 39.8 µM (inactive),CN1C(=O)c2ccccc2Oc2ccc(NC(=O)c3cc4ccccc4[nH]3)cc21
14,4.01 µM,CCS(=O)(=O)c1ncc(Cl)c(C(=O)Nc2ccc(C)cc2)n1
15,> 39.8 µM (inactive),CN1C(=O)c2ccccc2Sc2ccc(NC(=O)NCCCc3ccccc3)cc21
16,> 39.8 µM (inactive),CCCC(=O)Nc1ccc2c(c1)C(=O)N(C)c1ccccc1O2
17,> 39.8 µM (inactive),Cc1ccc(CS(=O)(=O)c2ncc(Cl)c(C(=O)Nc3nnc(C(C)C)s3)n2)cc1
18,> 39.8 µM (inactive),CC(C)N1C(=O)c2ccccc2Oc2ccc(NC(=O)c3ccccc3)cc21
19,> 39.8 µM (inactive),CC(NC(=O)CN1CCN(S(=O)(=O)c2ccc3c(c2)OCCCO3)CC1)c1cc2ccccc2o1 (centres undefined)
